Test results taken from patent publication US9849127B2, “Means and methods for treating cancer” (Medizinische Hochschule Hannover, priority 2013, dated 2017).

Assays:
[1] = test system: primary human AML cells harboring the IDH1 mutation; assay: Rate of apoptosis of primary human AML cells; assay type: cell-based; conditions: IDH1-mutated primary human AML cells compared to AML cells with wildtype IDH1 and CD34+ cells from healthy donors
Text: FIG. 4: Rate of apoptosis of primary human AML cells with and without IDH1 mutation treated with solvent control (DMSO) or compound HMS-101. Human CD34^+ hematopoietic stem and progenitor cells from healthy donors were used as controls.

[2] = Toxicity testing in animals; assay type: in vivo; conditions: mice, 1 mg intraperitoneally daily for two weeks
Description: The compound described herein has been given to mice at a dose of 1 mg intraperitoneally daily for two weeks.

IDH1 mutant enzyme = assay: Intracellular 2HG levels in IDH1mutant cells (neomorphic activity); assay type: cell-based; conditions: 72 hours, 10 μM, versus control treated cells
Text: FIG. 2: D-2HG levels from IDH1mut cells treated with compound HMS-101 (drug) or solvent control.

[3] = test system: R-2-hydroxyglutarate (R-2HG); assay: Ratio R-2HG/S-2HG in serum of treated mice; assay type: in vivo; conditions: treated mice versus PBS, 9 weeks after treatment, pooled serum
Text: FIG. 6: Ratio of R-2-hydroxyglutarate (R-2HG) to S-2-hydroxyglutarate (S-2HG) in serum from mice treated with HMS-101 or solvent control (PBS) at 9 weeks after treatment. Serum from 3 mice were pooled per indicated measurement (9 mice for PBS, 12 mice for HMS-101).
2-hydroxyglutarate (R-2HG), in particular elevated values thereof, typically measured in terms of the ratio between R- and S-form (R-2HG/S-2HG) is a marker for leukemia in accordance with the present invention. […] This establishes both the usefulness of the mentioned ratio as a marker for leukemia and the beneficial effects of HMS-101.

IDH1mut cancer cells = assay: Alamar blue cell viability assay, IDH1mut cells; assay type: cell-based
Description: (§1) FIG. 1: IC50 values for IDH1wt and IDH1mut treated with compound HMS-101 for 72 hours.

[4] = test system: primary human AML cells harboring the IDH1 mutation; assay: Colony forming assay of primary human AML cells; assay type: cell-based; conditions: IDH1-mutated primary human AML cells compared to AML cells with wildtype IDH1 and CD34+ cells from healthy donors
Text: FIG. 3: Colony forming assay of primary human AML cells with and without IDH1 mutation treated with solvent control (DMSO) or compound HMS-101. Human CD34^+ hematopoietic stem and progenitor cells from healthy donors were used as controls.

[5] = test system: HoxA9 immortalized bone marrow cells expressing IDH1R132C; assay: Survival of mice transplanted with HoxA9 immortalized IDH1R132C bone marrow cells; assay type: in vivo; conditions: 1 mg/mouse 5 days/week starting 5 days after transplantation, versus PBS; follow-up ongoing
Description: FIG. 5: Survival of mice treated with HMS-101.
HoxA9 immortalized bone marrow cells from C57BL/6J mice were transduced with retroviral vectors expressing IDH1R132C and GFP. One million GFP-expressing sorted cells were injected intravenously in lethally-irradiated syngeneic recipient mice, accompanied by a life-sparing dose of 1×10^5 freshly isolated bone marrow cells from syngeneic mice. One cohort of mice was treated with HMS-101 at a dose of 1 mg/mouse for 5 days/week starting 5 days after transplantation. The control cohort was treated with PBS for 5 days/week starting 5 days after transplantation. The solid line represents the survival of PBS-treated mice, the dotted line represents the survival of HMS-101-treated mice. Follow-up and treatment are ongoing.

IDH1wt cells = assay: Alamar blue cell viability assay, IDH1wt cells; assay type: cell-based; conditions: IDH1wt cells in vitro, treated for 72 hours
Description: as §1

## CN1CCN(C)[C@H](CCN2CC[C@H](c3ccc(F)cc3)C2)C1 [HMS-101]
[1]
  rate of apoptosis: increased the rate of apoptosis
[2]
  tolerability / visible signs of toxicity: well tolerated by the animals with no visible signs of toxicity
IDH1 mutant enzyme
  intracellular 2HG levels (D-2HG): dramatically reduced
[3]
  ratio R-2HG/S-2HG in serum: decrease of the ratio R-2HG/S-2HG
IDH1mut cancer cells; 72 hours
  IC50 on IDH1wt cells relative to IDH1mut cells: 12 times
IDH1mut cancer cells; IDH1mut cancer cells in vitro, treated for 72 hours
  IC50: 1 µM
[4]
  colony forming potential: reduced the colony forming potential
[5]
  survival: survival benefit
IDH1wt cells
  IC50: 12 µM
